Measurements as given in patent US12162820B2 (TAIWANJ PHARMACEUTICALS CO., LTD., priority 2019, dated 2024).

Columns and labels:
Format in all cases: biochemical
HDAC3 = target: T1, HDAC3 (Homo sapiens, UniProt O15379); experiment: HDAC Inhibition Screening Assay (FLUOR DE LYS Fluorimetric Drug Discovery Kit), HDAC3; conditions: for inhibition at 2 µM: 2 μM compound; for inhibition at 10 µM: 10 μM compound; for inhibition at 50 µM: 50 μM compound
T1 construct: purchased Enzo Life Sciences
Description: (§1) The HDAC1/HDAC2/HDAC3 in vitro activities are detected by Enzo Life Sciences' HDAC1/HDAC2/HDAC3 Fluorimetric Drug Discovery Kit. The assay is based on the FLUOR DE LYS® Substrate and FLUOR DE LYS® Developer combination. The assay procedure has two steps. First, the FLUOR DE LYS® Substrate, which comprises an acetylated lysine side chain, is incubated with HDAC1/HDAC2/HDAC3, respectively. Deacetylation of the substrate sensitizes the substrate so that, in the second step, treatment with the FLUOR DE LYS® Developer produces a fluorophore. The signals of the test compounds (Compounds 1˜83; at concentrations of 2 μM, 10 μM and 50 μM) in 96-well plates are detected at 360 nm or 485 nm excitation and 460 nm or 530 nm emission with a Molecular Devices SpectraMax i3 Imaging Cytometer. The HDAC1/HDAC2/HDAC3 activities are expressed in percentage of basal control minus baseline control.

HDAC1 = target: T2, HDAC1 (Homo sapiens, UniProt Q13547); experiment: HDAC Inhibition Screening Assay (FLUOR DE LYS Fluorimetric Drug Discovery Kit), HDAC1; conditions: for inhibition at 2 µM: 2 μM compound; for inhibition at 10 µM: 10 μM compound; for inhibition at 50 µM: 50 μM compound
T2 construct: purchased Enzo Life Sciences
T2 sequence (Q13547 whole entry): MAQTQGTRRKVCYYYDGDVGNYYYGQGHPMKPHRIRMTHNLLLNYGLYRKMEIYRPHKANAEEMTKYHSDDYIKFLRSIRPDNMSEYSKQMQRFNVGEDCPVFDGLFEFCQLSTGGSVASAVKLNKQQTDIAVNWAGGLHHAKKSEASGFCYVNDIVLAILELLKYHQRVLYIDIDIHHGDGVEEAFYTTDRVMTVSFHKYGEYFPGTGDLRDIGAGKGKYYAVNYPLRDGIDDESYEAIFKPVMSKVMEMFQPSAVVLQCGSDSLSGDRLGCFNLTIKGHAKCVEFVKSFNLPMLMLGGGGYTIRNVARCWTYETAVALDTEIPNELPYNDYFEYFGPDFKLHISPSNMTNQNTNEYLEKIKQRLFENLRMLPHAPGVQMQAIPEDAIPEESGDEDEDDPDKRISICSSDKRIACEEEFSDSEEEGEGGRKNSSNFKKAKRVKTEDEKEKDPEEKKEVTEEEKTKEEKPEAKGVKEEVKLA
Description: as §1

ATX (autotaxin) = target: T3, ATX (autotaxin) (Homo sapiens, UniProt Q13822); experiment: Autotaxin Inhibition Screening Assay (choline release from LPC, LPC-CR); conditions: for inhibition at 4 µM: 4 μM compound; for inhibition at 20 µM: 20 μM compound; for inhibition at 50 µM: 50 μM compound
T3 construct: purchased Cayman 10803
Description: ATX (autotaxin) activity was measured by choline release from LPC in presence or absence of test compounds (Compounds 1˜83; at concentrations of 4 μM, 20 μM and 50 μM). Twenty (20) ng ATX (10803, Cayman, MI, USA) was incubated with 100 μM 14:0 LPC (855575P, Avanti, AL, USA) in a final volume of 100 μL buffer containing 50 mM Tris pH 8.0, 0.01% Triton X-100, 50 mM CaCl2, 1 unit/ml choline oxidase, 2 unit/ml horseradish peroxidase (HRP), 2 mM homovanilic acid (HVA). The relative amount of released choline was measured by HVA fluorescence in a 96-well plate. Fluorescent intensity was determined at λex/λem=320/450 nm every 60 sec for 90 min with a SpectraMax i3 (Molecular Devices, CA, USA). Data analysis was performed using GraphPad Prism (GraphPad, La Jolla CA, USA). Inhibition %=[1−(SlopeTA−SlopeBlank)/(SlopeVehicle−SlopeBlank)]×100% HDAC Inhibition Screening Assay

HDAC2 = target: T4, HDAC2 (Homo sapiens, UniProt Q92769); experiment: HDAC Inhibition Screening Assay (FLUOR DE LYS Fluorimetric Drug Discovery Kit), HDAC2; conditions: for inhibition at 2 µM: 2 μM compound; for inhibition at 10 µM: 10 μM compound; for inhibition at 50 µM: 50 μM compound
T4 construct: purchased Enzo Life Sciences
T4 sequence (Q92769 whole entry): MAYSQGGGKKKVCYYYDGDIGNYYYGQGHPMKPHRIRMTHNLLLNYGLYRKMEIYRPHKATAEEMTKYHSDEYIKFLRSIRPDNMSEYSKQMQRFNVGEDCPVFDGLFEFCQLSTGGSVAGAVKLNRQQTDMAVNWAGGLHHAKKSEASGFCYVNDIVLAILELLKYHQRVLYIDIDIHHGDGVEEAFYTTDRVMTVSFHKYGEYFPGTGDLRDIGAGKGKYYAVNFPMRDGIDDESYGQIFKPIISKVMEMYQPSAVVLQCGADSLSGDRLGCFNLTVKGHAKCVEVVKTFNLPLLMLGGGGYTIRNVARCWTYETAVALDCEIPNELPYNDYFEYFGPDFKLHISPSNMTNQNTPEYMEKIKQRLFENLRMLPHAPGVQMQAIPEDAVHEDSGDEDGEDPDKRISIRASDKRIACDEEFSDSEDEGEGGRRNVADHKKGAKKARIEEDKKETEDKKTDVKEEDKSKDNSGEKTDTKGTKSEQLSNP
Description: as §1

T1 sequence (O15379 whole entry): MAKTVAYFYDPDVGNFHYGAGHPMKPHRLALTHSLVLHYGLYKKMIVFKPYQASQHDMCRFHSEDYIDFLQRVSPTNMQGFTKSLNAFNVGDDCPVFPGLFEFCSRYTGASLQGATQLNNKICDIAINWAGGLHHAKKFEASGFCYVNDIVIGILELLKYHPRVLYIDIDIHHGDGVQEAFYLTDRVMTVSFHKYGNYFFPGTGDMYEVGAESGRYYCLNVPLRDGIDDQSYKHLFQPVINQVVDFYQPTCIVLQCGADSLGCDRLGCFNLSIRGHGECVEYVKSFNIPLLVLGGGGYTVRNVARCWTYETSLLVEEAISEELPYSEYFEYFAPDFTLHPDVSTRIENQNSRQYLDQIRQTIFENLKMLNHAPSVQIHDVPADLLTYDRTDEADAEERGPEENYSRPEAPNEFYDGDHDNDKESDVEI
T1 sequence (O75376 395-489 partner limits assumed): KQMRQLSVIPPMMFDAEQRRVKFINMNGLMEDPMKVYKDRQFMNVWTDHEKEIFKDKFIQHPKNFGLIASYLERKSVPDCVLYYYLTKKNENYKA

Row | inhibition at 2 µM (HDAC3) [%] | inhibition at 10 µM (HDAC3) [%] | inhibition at 50 µM (HDAC3) [%] | inhibition at 2 µM (HDAC1) [%] | inhibition at 10 µM (HDAC1) [%] | inhibition at 50 µM (HDAC1) [%] | inhibition at 4 µM (ATX (autotaxin)) [%] | inhibition at 20 µM (ATX (autotaxin)) [%] | inhibition at 50 µM (ATX (autotaxin)) [%] | inhibition at 2 µM (HDAC2) [%] | inhibition at 10 µM (HDAC2) [%] | inhibition at 50 µM (HDAC2) [%] | Structure (SMILES)
1 | < 50 | 50 to 80 | > 80 | < 50 | > 80 | > 80 | < 50 | < 50 | < 50 | 50 to 80 | > 80 | > 80 | O=C(/C=C/c1ccc2c(c1)CCC2OCc1cc(C(F)(F)F)cc(C(F)(F)F)c1)NO (stereo not drawn) [Compound 34, (E)-3-(1-((3,5-bis(trifluoromethyl)benzyl)oxy)-2,3-dihydro-1H-inden-5-yl)-N-hydroxyacrylamide]
2 | < 50 | < 50 | < 50 | < 50 | < 50 | < 50 | < 50 | < 50 | < 50 | < 50 | < 50 | < 50 | Nc1cc(F)ccc1NC(=O)/C=C/c1ccc2c(c1)CCCC2NC(=O)c1cc(C(F)(F)F)cc(C(F)(F)F)c1 (stereo not drawn) [Compound 23]
3 | < 50 | < 50 | < 50 | < 50 | < 50 | < 50 | 50 to 80 | 50 to 80 | 50 to 80 | < 50 | < 50 | < 50 | Nc1cc(F)ccc1NC(=O)CCCCCCC(=O)Nc1ccc2c(c1)CC/C(=C\c1cc(C(F)(F)F)cc(C(F)(F)F)c1)C2=O [Compound 5, (E)-N1-(2-amino-4-fluorophenyl)-N8-(6-(3,5-bis(trifluoromethyl)benzylidene)-5-oxo-5,6,7,8-tetrahydronaphthalen-2-yl)octanediamide]
4 | 50 to 80 | > 80 | 50 to 80 | < 50 | 50 to 80 | > 80 | < 50 | < 50 | > 80 | 50 to 80 | 50 to 80 | > 80 | O=C(/C=C/c1ccc2c(c1)CCC2NC(=O)CCCCCCC(=O)NO)Nc1cc(Cl)cc(Cl)c1 (stereo not drawn) [Compound 42, (E)-N^1-(5-(3-((3,5-dichlorophenyl)amino)-3-oxoprop-1-en-1-yl)-2,3-dihydro-1H-inden-1-yl)-N^8-hydroxyoctanediamide]
5 | > 80 | > 80 | > 80 | > 80 | > 80 | > 80 | < 50 | < 50 | < 50 | > 80 | > 80 | > 80 | Cc1ccc(S(=O)(=O)NC2CCc3cc(/C=C/C(=O)NO)ccc32)cc1 (stereo not drawn) [Compound 16, (E)-N-hydroxy-3-(1-((4-methylphenyl)sulfonamido)-2,3-dihydro-1H-inden-5-yl)acrylamide]
6 | > 80 | > 80 | > 80 | > 80 | > 80 | > 80 | < 50 | < 50 | < 50 | > 80 | > 80 | > 80 | O=C(/C=C/c1ccc2c(c1)CCC2NCCC(=O)Nc1cc(C(F)(F)F)cc(C(F)(F)F)c1)NO (stereo not drawn) [Compound 50, (E)-3-(1-((3-((3,5-bis(trifluoromethyl)phenyl)amino)-3-oxopropyl)amino)-2,3-dihydro-1H-inden-5-yl)-N-hydroxyacrylamide]
7 | > 80 | > 80 | > 80 | > 80 | > 80 | > 80 | < 50 | < 50 | < 50 | > 80 | > 80 | > 80 | O=C(/C=C/c1ccc2c(c1)CCC2NCCc1ccc(F)cc1)NO (stereo not drawn) [Compound 53]
8 | 50 to 80 | > 80 | > 80 | 50 to 80 | > 80 | > 80 | > 80 | > 80 | > 80 | 50 to 80 | > 80 | > 80 | O=C(CCCCCNC(=O)c1ccc2c(c1)CC/C(=C\c1cc(C(F)(F)F)cc(C(F)(F)F)c1)C2=O)NO [Compound 79, (E)-6-(3,5-bis(trifluoromethyl)benzylidene)-N-(6-(hydroxyamino)-6-oxohexyl)-5-oxo-5,6,7,8-tetrahydronaphthalene-2-carboxamide]
9 | > 80 | > 80 | > 80 | > 80 | > 80 | > 80 | < 50 | < 50 | < 50 | > 80 | > 80 | > 80 | O=C(CCCCCCC(=O)Nc1ccc2c(c1)CCCC2=O)NO [Compound 1, N^1-hydroxy-N^8-(5-oxo-5,6,7,8-tetrahydronaphthalen-2-yl)octanediamide]
10 | < 50 | < 50 | 50 to 80 | < 50 | < 50 | 50 to 80 | > 80 | > 80 | > 80 | < 50 | < 50 | 50 to 80 | O=C(CCCCC(=O)N1CCN(C(=O)c2ccc3c(c2)CC/C(=C\c2cc(C(F)(F)F)cc(C(F)(F)F)c2)C3=O)CC1)NO [Compound 83, (E)-6-(4-(6-(3,5-bis(trifluoromethyl)benzylidene)-5-oxo-5,6,7,8-tetrahydro-naphthalene-2-carbonyl)piperazin-1-yl)-N-hydroxy-6-oxohexanamide]
11 | > 80 | > 80 | > 80 | > 80 | > 80 | > 80 | < 50 | < 50 | < 50 | > 80 | > 80 | > 80 | Cc1[nH]c2ccccc2c1CCNC1CCCc2cc(/C=C/C(=O)NO)ccc21 (stereo not drawn) [Compound 63, (E)-N-hydroxy-3-(5-((2-(2-methyl-1H-indol-3-yl)ethyl)amino)-5,6,7,8-tetrahydronaphthalen-2-yl)acrylamide]
12 | 50 to 80 | > 80 | > 80 | 50 to 80 | > 80 | > 80 | < 50 | < 50 | < 50 | 50 to 80 | > 80 | > 80 | O=C(/C=C/c1ccc2c(c1)CCC2NC(=O)c1cc(C(F)(F)F)cc(C(F)(F)F)c1)NO (stereo not drawn) [Compound 22, (E)-N-(5-(3-(hydroxyamino)-3-oxoprop-1-en-1-yl)-2,3-dihydro-1H-inden-1-yl)-3,5-bis(trifluoromethyl)benzamide]
13 | < 50 | < 50 | < 50 | < 50 | < 50 | < 50 | < 50 | < 50 | < 50 | < 50 | < 50 | < 50 | Nc1cc(F)ccc1NC(=O)/C=C/c1ccc2c(c1)CCC2NS(=O)(=O)c1cc(C(F)(F)F)cc(C(F)(F)F)c1 (stereo not drawn) [Compound 17, (E)-N-(2-amino-4-fluorophenyl)-3-(1-((3,5-bis(trifluoromethyl)phenyl)sulfonamido)-2,3-dihydro-1H-inden-5-yl)acrylamide]
